# Biological target: T1, recombinant His-tag Y220C p53 DBD protein (Homo sapiens, UniProt P04637, Y220C)
# T1 construct: recombinant His-tag Y220C p53 DBD protein (amino acids #˜94-312)
# Assay: In vitro DNA binding activity assay (TR-FRET): binding of His-tag Y220C p53 DBD to biotin-labeled consensus DNA
# Type: biochemical
# Settings: SC150 = concentration to increase DNA binding by […], His-tag Y220C p53 DBD, biotin-labeled consensus DNA
row,SMILES,Y220C SC150 (μM)
1,"CC(C)(C)n1ccc(C(=O)NCc2nc(-c3cc4c(N[C@@H]5CCOC[C@@H]5F)cccc4n3CC(F)(F)F)no2)c1 [Compound 493B, 1-tert-butyl-N-{[3-(4-{[(3R,4R)-3-fluorooxan-4-yl]amino}-1-(2,2,2-trifluoroethyl)-1H-indol-2-yl)-1,2,4-oxadiazol-5-yl]methyl}-1H-pyrrole-3-carboxamide]",* (* = 0 μM ≤ SC150 < 0.1 μM)
2,"CN1CC[C@@H](Nc2cccc3c2cc(-c2noc(CNC(=O)[C@H]4CC4(C)C)n2)n3CC(F)(F)F)[C@@H](F)C1 [Compound 233B, (1S)-N-{[3-(4-{[(3S,4R)-3-fluoro-1-methylpiperidin-4-yl]amino}-1-(2,2,2-trifluoroethyl)-1H-indol-2-yl)-1,2,4-oxadiazol-5-yl]methyl}-2,2-dimethylcyclopropane-1-carboxamide]",* (* = 0 μM ≤ SC150 < 0.1 μM)
3,"CN1CC[C@@H](Nc2cccc3c2cc(-c2noc(CNc4nccc5sccc45)n2)n3CC(F)(F)F)[C@@H](F)C1 [Compound 457B, N-[(3S,4R)-3-fluoro-1-methylpiperidin-4-yl]-2-{5-[({thieno[3,2-c]pyridin-4-yl}amino)methyl]-1,2,4-oxadiazol-3-yl}-1-(2,2,2-trifluoroethyl)-1H-indol-4-amine]",* (* = 0 μM ≤ SC150 < 0.1 μM)
4,CN1CC[C@@H](Nc2cccc3c2cc(-c2noc(CNC(=O)c4cnn([C@H]5CCC[C@@H]5F)c4)n2)n3CC(F)(F)F)[C@@H](F)C1 (relative stereo) [Compound 395B],* (* = 0 μM ≤ SC150 < 0.1 μM)
5,"CN1CC[C@@H](Nc2cccc3c2cc(-c2noc(CNC(=O)c4cnn(C5CCC5)c4)n2)n3CC(F)(F)F)[C@@H](F)C1 [Compound 369B, 1-cyclobutyl-N-{[3-(4-{1[(3S,4R)-3-fluoro-1-methylpiperidin-4-yl]amino}-1-(2,2,2-trifluoroethyl)-1H-indol-2-yl)-1,2,4-oxadiazol-5-yl]methyl}-1H-pyrazole-4-carboxamide]",* (* = 0 μM ≤ SC150 < 0.1 μM)
6,"Cc1c(C(=O)NCc2nc(-c3cc4c(N[C@@H]5CCN(C)C[C@@H]5F)cccc4n3CC(F)(F)F)no2)cnn1C(C)(C)C [Compound 322B, 1-tert-butyl-N-{[3-(4-{[(3S,4R)-3-fluoro-1-methylpiperidin-4-yl]amino}-1-(2,2,2-trifluoroethyl)-1H-indol-2-yl)-1,2,4-oxadiazol-5-yl]methyl}-5-methyl-1H-pyrazole-4-carboxamide]",* (* = 0 μM ≤ SC150 < 0.1 μM)
7,"CN1CC[C@@H](Nc2cccc3c2cc(-c2noc(CNC(=O)c4ccn(C5CCOC5)c4)n2)n3CC(F)(F)F)[C@@H](F)C1 (stereo partly drawn) [Compound 323B, N-{[3-(4-{[(3S,4R)-3-fluoro-1-methylpiperidin-4-yl]amino}-1-(2,2,2-trifluoroethyl)-1H-indol-2-yl)-1,2,4-oxadiazol-5-yl]methyl}-1-(oxolan-3-yl)-1H-pyrrole-3-carboxamide]",* (* = 0 μM ≤ SC150 < 0.1 μM)
8,"CN1CC[C@@H](Nc2cccc3c2cc(-c2noc(CNc4nccc5c4ccn5C)n2)n3CC(F)(F)F)[C@@H](F)C1 [Compound 454B, N-[(3S,4R)-3-fluoro-1-methylpiperidin-4-yl]-2-{5-[({1-methyl-1H-pyrrolo[3,2-c]pyridin-4-yl}amino)methyl]-1,2,4-oxadiazol-3-yl}-1-(2,2,2-trifluoroethyl)-1H-indol-4-amine]",* (* = 0 μM ≤ SC150 < 0.1 μM)
9,"CN1CC[C@@H](Nc2cccc3c2cc(-c2noc(CNC(=O)c4cnn(C5COC5)c4)n2)n3CC(F)(F)F)[C@@H](F)C1 [Compound 372B, N-{[3-(4-{[(3S,4R)-3-fluoro-1-methylpiperidin-4-yl]amino}-1-(2,2,2-trifluoroethyl)-1H-indol-2-yl)-1,2,4-oxadiazol-5-yl]methyl}-1-(oxetan-3-yl)-1H-pyrazole-4-carboxamide]",* (* = 0 μM ≤ SC150 < 0.1 μM)
10,"CN1CC[C@@H](Nc2cccc3c2cc(-c2noc(CNC(=O)c4cn(C(C)(C)C)cn4)n2)n3CC(F)(F)F)[C@@H](F)C1 [Compound 292B, 1-tert-butyl-N-{[3-(4-{[(3S,4R)-3-fluoro-1-methylpiperidin-4-yl]amino}-1-(2,2,2-trifluoroethyl)-1H-indol-2-yl)-1,2,4-oxadiazol-5-yl]methyl}-1H-imidazole-4-carboxamide]",* (* = 0 μM ≤ SC150 < 0.1 μM)
11,"COC(C)(C)c1cc(C(=O)NCc2nc(-c3cc4c(N[C@H]5CCNC[C@H]5F)cccc4n3CC(F)(F)F)no2)cs1 [Compound 490B, N-{[3-(4-{[(3R,4S)-3-fluoropiperidin-4-yl]amino}-1-(2,2,2-trifluoroethyl)-1H-indol-2-yl)-1,2,4-oxadiazol-5-yl]methyl}-5-(2-methoxypropan-2-yl)thiophene-3-carboxamide]",* (* = 0 μM ≤ SC150 < 0.1 μM)

# Next, values leading:
row,Y220C SC150 (μM),SMILES
1,* (* = 0 μM ≤ SC150 < 0.1 μM),"COc1cccc(C(=O)NCc2nnc(-c3cc4c(NC5CCN(C)CC5)cccc4n3CC(F)(F)F)s2)c1 [Compound 64B, 3-methoxy-N-[(5-{4-[(1-methylpiperidin-4-yl)amino]-1-(2,2,2-trifluoroethyl)-1H-indol-2-yl}-1,3,4-thiadiazol-2-yl)methyl]benzamide]"
2,** (** = 0.1 μM ≤ SC150 < 0.5 μM),"CN1CCC(Nc2cccc3c2cc(-c2nnc(CNC(=O)c4ccccn4)s2)n3CC(F)(F)F)CC1 [Compound 41B, N-[(5-{4-[(1-methylpiperidin-4-yl)amino]-1-(2,2,2-trifluoroethyl)-1H-indol-2-yl}-1,3,4-thiadiazol-2-yl)methyl]pyridine-2-carboxamide]"
3,** (** = 0.1 μM ≤ SC150 < 0.5 μM),"CN1CCC(Nc2cccc3c2cc(-c2nnc(CNC(=O)C4(F)CC4)s2)n3CC(F)(F)F)CC1 [Compound 31B, 1-fluoro-N-[(5-{4-[(1-methylpiperidin-4-yl)amino]-1-(2,2,2-trifluoroethyl)-1H-indol-2-yl}-1,3,4-thiadiazol-2-yl)methyl]cyclopropane-1-carboxamide]"
4,* (* = 0 μM ≤ SC150 < 0.1 μM),"CC(C)c1ncc(C(=O)NCc2nc(-c3cc4c(N[C@@H]5CCN(C)C[C@@H]5F)cccc4n3CC(F)(F)F)no2)s1 [Compound 431B, N-{[3-(4-{[(3S,4R)-3-fluoro-1-methylpiperidin-4-yl]amino}-1-(2,2,2-trifluoroethyl)-1H-indol-2-yl)-1,2,4-oxadiazol-5-yl]methyl}-2-(propan-2-yl)-1,3-thiazole-5-carboxamide]"
5,* (* = 0 μM ≤ SC150 < 0.1 μM),"Cc1cc(C(=O)NCc2nc(-c3cc4c(N[C@@H]5CCN(C)C[C@@H]5F)cccc4n3CC(F)(F)F)no2)cs1 [Compound 208B, N-{[3-(4-{[(3S,4R)-3-fluoro-1-methylpiperidin-4-yl]amino}-1-(2,2,2-trifluoroethyl)-1H-indol-2-yl)-1,2,4-oxadiazol-5-yl]methyl}-5-methylthiophene-3-carboxamide]"
6,* (* = 0 μM ≤ SC150 < 0.1 μM),"COC(=O)NCc1nnc(-c2cc3c(N[C@@H]4CCN(C)C[C@@H]4F)cccc3n2CC(F)(F)F)s1 (racemic) [Compound 38B, (+/−)-methyl N-{[5-(4-{[(3R,4S)-3-fluoro-1-methylpiperidin-4-yl]amino}-1-(2,2,2-trifluoroethyl)-1H-indol-2-yl)-1,3,4-thiadiazol-2-yl]methyl}carbamate]"
7,* (* = 0 μM ≤ SC150 < 0.1 μM),"CN1CC[C@@H](Nc2cccc3c2cc(-c2noc(CNC(=O)c4ccc(C(C)(C)C)[nH]4)n2)n3CC(F)(F)F)[C@@H](F)C1 [Compound 524B, 5-tert-butyl-N-{[3-(4-{[(3S,4R)-3-fluoro-1-methylpiperidin-4-yl]amino}-1-(2,2,2-trifluoroethyl)-1H-indol-2-yl)-1,2,4-oxadiazol-5-yl]methyl}-1H-pyrrole-2-carboxamide]"
8,*** (*** = 0.5 μM ≤ SC150 < 1 μM),"CN1CCC(Nc2cccc3c2cc(-c2nnc(CNc4cn[nH]c4)o2)n3CC(F)(F)F)CC1 [Compound 112B, N-(1-methylpiperidin-4-yl)-2-(5-{[(1H-pyrazol-4-yl)amino]methyl}-1,3,4-oxadiazol-2-yl)-1-(2,2,2-trifluoroethyl)-1H-indol-4-amine]"
9,**** (**** = 1 μM ≤ SC150 < 10 μM),"CN1CC[C@@H](Nc2cccc3c2cc(-c2nc(CNC(=O)C4CC4)cs2)n3CC(F)(F)F)[C@@H](F)C1 (racemic) [Compound 89B, N-{[2-(4-{[(3S,4R)-3-fluoro-1-methylpiperidin-4-yl]amino}-1-(2,2,2-trifluoroethyl)-1H-indol-2-yl)-1,3-thiazol-4-yl]methyl}cyclopropanecarboxamide]"

# Same assay, conditions: concentration to increase DNA binding by […], incubated at either 27° C. or 29° C. for 60 min
row,SMILES,SC150 (μM)
1,"CS(=O)(=O)c1ccc(NCc2ccc(-c3cc4c(NC5CCS(=O)(=O)CC5)cccc4n3CC(F)(F)F)cc2)cn1 [Compound 29A, 4-{[2-(4-{[(6-methanesulfonylpyridin-3-yl)amino]methyl}phenyl)-1-(2,2,2-trifluoroethyl)-1H-indol-4-yl]amino}-1λ^6-thiane-1,1-dione]",+ (+ = 0 μM ≤ SC150 < 2 μM)
2,"COc1ccc(NCc2ccc(-c3cc4c(NC5CCN(C6CCOCC6)CC5)cccc4n3CC(F)(F)F)cc2)cc1 [Compound 33A, 2-(4-{[(4-methoxyphenyl)amino]methyl}phenyl)-N-[1-(oxan-4-yl)piperidin-4-yl]-1-(2,2,2-trifluoroethyl)-1H-indol-4-amine]",++ (++ = 2 μM ≤ SC150 < 5 μM)
3,"Cc1ccc(NCc2ccc(-c3cc4c(NC5CCN(C6CCOCC6)CC5)cccc4n3CC(F)(F)F)cc2)cn1 [Compound 31A, 2-(4-{[(6-methylpyridin-3-yl)amino]methyl}phenyl)-N-[1-(oxan-4-yl)piperidin-4-yl]-1-(2,2,2-trifluoroethyl)-1H-indol-4-amine]",+ (+ = 0 μM ≤ SC150 < 2 μM)
4,"O=S1(=O)CCC(Nc2cccc3c2cc(-c2ccc(Cl)cc2)n3CC(F)(F)F)CC1 [Compound 14A, 4-{[2-(4-chlorophenyl)-1-(2,2,2-trifluoroethyl)-1H-indol-4-yl]amino}-1λ^6-thiane-1,1-dione]",++++ (++++ = 10 μM ≤ SC150 < 35 μM)

# — patent US11807644B2 (PMV Pharmaceuticals, Inc., priority 2020, dated 2023)
